Data taken from patent US20110152362A1, “METHODS OF TREATING EPILEPTOGENESIS AND EPILEPSY” (priority 2004, published 2011).

Legend:
seizures in rats = assay: ED50 for preventing seizures in rats; type: in vivo; details: Rattus norvegicus, depending on the time and experiment type
[1] = system: rats subjected to Li-pilo induced SE; assay: Example 1: mortality induced by lithium-pilocarpine status epilepticus; type: in vivo, rat
Procedure: (§1) The bilateral EEG cortical activity was recorded during the whole duration of SE and behavioral changes were noted.
(§2) The effects of increasing doses of the Test Compound were studied on 3 groups of rats. The animals of the first group received 10 mg/kg of the test compound, i.p., 1 h after the onset of SE (pilo-TC10) while the animals of groups 2 and 3 received 30 and 60 mg/kg of the Test Compound (pilo-TC30 and pilo-TC60), respectively.
(§3) The control group received saline instead of pilocarpine and the Test Compound (saline-saline). […] Pilo-DZP received a second injection of 1 mg/kg DZP on the day of SE at about 10 h after the first one. Thereafter, Pilo-DZP and saline-saline rats received twice daily an equivalent volume of saline.

[2] = system: rats subjected to Li-pilo induced SE; assay: Example 1: latency to and frequency of spontaneous recurrent seizures (SRS), lithium-pilocarpine model; type: in vivo, rat
Procedure: as §1, §2, §3
The effects of the test compound on the EEG and on the latency to occurrence of SRS were investigated by daily video recording of the animals for 10 h per day and the recording of the electrographic activity twice a week for 8 h.
To calculate the frequency of SRS in pilocarpine-exposed rats, the seizure severity and distinguished stage III (clonic seizures of facial muscles and anterior limbs) and stage IV-V seizures (rearing and falling) was measured. The frequency of stage III SRS per week in pilo-DZP and pilo-test compound rats was variable amongst the groups. It was low, constant in the pilo-DZP and pilo-TC60 (with early SRS onset) groups during the first 3 weeks and had disappeared during the 4th week in the pilo-DZP group. […] The frequency of more severe stage IV-V SRS was highest during the first week in most groups, except pilo-TC30 and TC60 with late seizure onset where the SRS frequency was constant over the whole 4 weeks in TC30 group and over the first two weeks in the pilo-TC60 group with late SRS onset in which no stage IV-V seizures where no seizures recorded after the second week.

[3] = system: rats subjected to Li-pilo induced SE; assay: Example 1: Timm staining, mossy fiber sprouting in hippocampus; type: in vivo, rat; details: for Timm score: 60 mg/kg
Procedure: At 2 months after the onset of spontaneous recurrent seizures, mossy fiber sprouting was examined on rats in the chronic period exposed to the test compound or DZP and in 3 saline-saline rats. Animals were deeply anaesthetized and perfused transcardially with saline followed by 100 ml of 1.15% (w/v) Na2S in 0.1 M phosphate buffer, and 100 ml of 4% (v/v) formaldehyde in 0.1 M phosphate buffer. Brains were removed from skull, post-fixed in 4% formaldehyde during 3-5 h and 40 μm sections were cut on a sliding vibratome and mounted on gelatin-coated slides.
The following day, sections were developed in the dark in a 26° C. solution of 50% (w/v) arabic gum (160 ml), sodium citrate buffer (30 ml), 5.7% (w/v) hydroquinone (80 ml) and 10% (w/v) silver nitrate (2.5 ml) during 40-45 min. The sections were then rinsed with tap water at 40° C. during at least 45 min, rinsed rapidly with distilled water and allowed to dry. They were dehydrated in ethanol and coverslipped.
Mossy fiber sprouting was evaluated according to criteria previously described in dorsal hippocampus (Cavazos et al., 1991, J Neurosci 11:2795-2803.), which are follows: 0—no granules between the tips and crest of the DG; 1—sparse granules in the supragranular region in a patchy distribution between the tips and crest of DG; 2—more numerous granules in a continuous distribution between the tips and crest of DG; 3—prominent granules in a continuous pattern between tips and crest, with occasional patches of confluent granules between tips and crest; 4—prominent granules that form a confluent dense laminar band between tips and crest and 5—confluent dense laminar band of granules that extends into the inner molecular layer.

[4] = system: rats subjected to li-pilo SE; assay: Example 2: latency to and frequency of spontaneous seizures (video recording); type: in vivo, rat
Procedure: The effects of DZP and the 4 doses of TC on epileptogenesis were investigated by daily video recording of the animals for 10 h per day. Video recording was performed for 4 weeks during which the occurrence of the first seizure was noted as well as the total number of seizures over the whole period. Animals were then taken off the video recording system and kept for 4 additional weeks in our animal facilities before they were sacrificed after a total period of 8 weeks of epilepsy.

[5] = Example 3 study 1: single oral dose pharmacokinetics in healthy men; type: in vivo, human
Procedure: (§4) Two single-center, placebo-controlled, double-blind, ascending-dose studies were conducted in healthy men ≧18 and ≦45 yrs. In study 1 (N=70), subjects were randomly assigned to a single dose of Test Compound (TC) or placebo. Escalated doses were received as 100, 250, 400, 750, 1000, 1250, and 1500 mg. PK parameters were estimated from plasma and urine samples collected up to 3 days post dose. Study 2 (N=53) evaluated the PK of repeated doses of Test Compound (TC) in 4 dose groups (100, 250, 500, or 750 mg). Within each group, 12 subjects were assigned to q12h treatment with drug or placebo for 1 wk and were crossed over after a 14-day washout period. PK parameters were estimated from plasma and urine samples on days 1 and 7.

[6] = Example 3 study 2: repeated oral dose (q12h, 1 wk) pharmacokinetics in healthy men; type: in vivo, human
Procedure: as §4

[7] = repeated doses q12h, 100-750 mg

NC(=O)OC[C@@H](O)c1ccccc1Cl [TC]
ED50 (seizures in rats): 4 to 30 mg/kg
mortality during the first 48 h after SE ([1]; pilo-TC10, 10 mg/kg i.p.): 26%
mortality during the first 48 h after SE ([1]; pilo-TC30, 30 mg/kg i.p.): 20%
mortality during the first 48 h after SE ([1]; pilo-TC60, 60 mg/kg i.p.): 4%
rats in which occurrence of spontaneous seizures was delayed ([2]; TC 60 mg/kg (4 out of 11)): 36%
mean delay to epilepsy in subgroup vs other groups of animals ([2]; TC 60 mg/kg, subgroup): about 9 fold longer
latency to SRS ([2]; TC60, subgroup with latency similar to other groups (n=7)): 17.6 ± 8.7 days
latency to SRS, mean ([2]; TC60, subgroup with much longer delay (n=4)): 149.8 ± 36.0 days
frequency of stage IV-V SRS ([2]; first week, TC10, TC30 and TC60 (with early SRS onset) groups): 2.3-6.1 SRS per week
frequency of stage III SRS ([2]; pilo-TC10 group, weeks 3 and 4): significantly increased over pilo-DZP values
latency to SRS ([2]; pilo-TC10 rats): 15.4 ± 5.1 days
latency to SRS ([2]; pilo-TC30 rats): 18.9 ± 9.0 days
frequency of stage IV-V SRS ([2]; weeks 2-4, pilo-TC60 group with early SRS onset): 0.6-0.9 seizure per week
Timm score ([3]; subgroup with early SRS occurrence): 1.8±0.6
Timm score ([3]; subgroup with late occurrence or absence of SRS): 1.2±0.6
Timm score in the upper blade of the dentate gyrus, mean ([3]; pilo-TC10 rats): 1.5±0.6
Timm score in the upper blade of the dentate gyrus, mean ([3]; pilo-TC30 rats): 2.6±1.0
Timm score in the upper blade of the dentate gyrus, mean ([3]; whole group of pilo-TC60 rats): 1.5±0.7
effect on the latency to the first spontaneous seizure ([4]; 30 mg/kg): did not affect the latency to the first spontaneous seizure
latency of long latency subgroup relative to short latency ([4]; 3 higher doses (60, 90, 120 mg/kg)): 4-6 times longer
frequency of spontaneous seizures over four weeks of recording ([4]; TC60, 90 and 120 groups vs DZP and TC30 groups): lower
percentage of rats with short latencies to seizures ([4]; at 30 mg/kg (so in the source), short latency = shorter than 40 days after SE): 70%
percentage of rats with short latencies to seizures ([4]; at 90 mg/kg): 36%
percentage of rats with short latencies to seizures ([4]; at 120 mg/kg): 11%
percentage of non-epileptic rats (no seizure over 150 days post-SE) ([4]; at both highest doses, 90 and 120 mg/kg): 45%
Latency to the first spontaneous seizure ([4]; pilo-TC30, 30 mg/kg): 11.6 ± 2.5 days
Latency to the first spontaneous seizure ([4]; pilo-TC60, Long latency subgroup): 76.7 ± 15.6**°° days
Latency to the first spontaneous seizure ([4]; pilo-TC60, Short latency subgroup): 17.4 ± 5.4 days
Latency to the first spontaneous seizure ([4]; pilo-TC90, Long latency subgroup): 52.0 ± 1.0*° days
Latency to the first spontaneous seizure ([4]; pilo-TC90, Non epileptic subgroup (no seizure over 150 days post-SE)): 150**°° days
Latency to the first spontaneous seizure ([4]; pilo-TC90, Short latency subgroup): 14.8 ± 5.7 days
Latency to the first spontaneous seizure ([4]; pilo-TC120, Long latency subgroup): 84.5 ± 16.7**°° days
Latency to the first spontaneous seizure ([4]; pilo-TC120, Non epileptic subgroup (no seizure over 150 days post-SE)): 150**°° days
Latency to the first spontaneous seizure ([4]; pilo-TC120, Short latency subgroup): 13.0 days
Tmax ([5]; male, human, plasma, single oral dose 100-1500 mg, healthy men): 1.3 to 2.7 h
half-life ([5]; male, human, plasma, single oral dose 100-1500 mg, healthy men, read-out: Mean t1/2): 690 to 834 min
Cmax and AUC0-∞ dose dependence ([5]; single dose over the range of 100-1500 mg): increased in proportion to dose
Mean CL/F ([5]; single oral dose 100-1500 mg, healthy men): 2.87 to 3.67 L/h
absorption following oral administration ([5]; single oral dose, healthy men): rapidly absorbed
Mean CLR relative to mean oral clearance ([6]; healthy men): < 5 % of the mean oral clearance
Tmax at 1 wk ([6]; male, human, plasma, oral, repeated doses q12h, 100-750 mg): 1.3 to 1.8 h
half-life at 1 wk ([6]; male, human, plasma, oral, repeated doses q12h, 100-750 mg, read-out: mean t1/2 at steady state): 714 to 768 min
accumulation: Cmax and AUC0-12 on day 7 vs. day 1 ([6]; q12h administration, listed as Test Compound): about two-fold
Steady-state Cmax and AUC0-12 dose dependence ([6]; repeated doses 100-750 mg): increased in proportion to the dose
mean CL/F at steady state [6, 7]: 3.40 to 3.78 L/h
time for plasma concentrations to reach steady state [6, 7]: 3 to 4 days
linearity of PK ([6]; single (100-1500 mg) and repeated (100-750 mg bid) doses, healthy adult men): linear
